# Reference: ChEMBL document CHEMBL1201862, “PubChem BioAssay data set” (2004)
#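 Test compounds were applied to cells in 96-well plates for 48 hours at 5 doses. Abbreviation: GI50, concentration required for 50% inhibition of growth.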 The source made the active and inactive calls. No stated cut-off is given here; in the data, active = GI50 up to about 1.1 µM and inactive = higher.
# Columns and labels:
# Test in all cases: NCI anticancer screen, dose series, 48 h
# MOLT-4 = system: MOLT-4
# HT-29 = system: HT-29
# HOP-62 = system: HOP-62
# NCI/ADR-RES = system: NCI/ADR-RES
# SK-MEL-28 = system: SK-MEL-28
# NCI-H226 = system: NCI-H226
# MCF7 = system: MCF7
# DU-145 = system: DU-145
# SNB-19 = system: SNB-19
# EKVX = system: EKVX
# SK-MEL-5 = system: SK-MEL-5
# CCRF-CEM = system: CCRF-CEM
# 786-0 = system: 786-0
# HOP-92 = system: HOP-92
# SF-295 = system: SF-295
# UACC-62 = system: UACC-62
# CAKI-1 = system: CAKI-1
# RXF 393 = system: RXF 393
# Malme-3M = system: Malme-3M
# LOX IMVI = system: LOX IMVI
# HCT-116 = system: HCT-116
# SW-620 = system: SW-620
# M14 = system: M14
# ACHN = system: ACHN
# SNB-75 = system: SNB-75
# BT-549 = system: BT-549
# IGROV-1 = system: IGROV-1
# SK-MEL-2 = system: SK-MEL-2
# T47D = system: T47D
# UO-31 = system: UO-31
# OVCAR-8 = system: OVCAR-8
# OVCAR-3 = system: OVCAR-3
# Hs-578T = system: Hs-578T
# OVCAR-5 = system: OVCAR-5
# K562 = system: K562
# HL-60 = system: HL-60
# NCI-H522 = system: NCI-H522
# HCT-15 = system: HCT-15
# SF-539 = system: SF-539
# SN12C = system: SN12C
# PC-3 = system: PC-3
# MDA-MB-435 = system: MDA-MB-435
# SF-268 = system: SF-268
# SR = system: SR
# RPMI-8226 = system: RPMI-8226
# KM12 = system: KM12
# OVCAR-4 = system: OVCAR-4
# A549 = system: A549
# NCI-H23 = system: NCI-H23
# COLO 205 = system: COLO 205
# HCC 2998 = system: HCC 2998
# NCI-H460 = system: NCI-H460
# UACC-257 = system: UACC-257
# MDA-N = system: MDA-N
# U-251 = system: U-251
# A498 = system: A498
# TK-10 = system: TK-10
# MDA-MB-231 = system: MDA-MB-231
compound,measurement,setting,value
COc1cc(S(=O)(=O)Nc2ccc(-c3csc(/N=C\c4cccc(Oc5ccccc5)c4)n3)cc2)ccc1Cl,GI50,MOLT-4,23 µM (inactive)
same,GI50,HT-29,9.75 µM (inactive)
same,GI50,HOP-62,44.9 µM (inactive)
same,GI50,NCI/ADR-RES,96.4 µM (inactive)
same,GI50,SK-MEL-28,36.1 µM (inactive)
same,GI50,NCI-H226,47.5 µM (inactive)
same,GI50,MCF7,5.2 µM (inactive)
same,GI50,DU-145,25.5 µM (inactive)
same,GI50,SNB-19,8.85 µM (inactive)
same,GI50,EKVX,8.39 µM (inactive)
same,GI50,SK-MEL-5,27.9 µM (inactive)
same,GI50,CCRF-CEM,32 µM (inactive)
same,GI50,786-0,5.58 µM (inactive)
same,GI50,HOP-92,20.1 µM (inactive)
same,GI50,SF-295,47.1 µM (inactive)
same,GI50,UACC-62,6.44 µM (inactive)
same,GI50,CAKI-1,74.8 µM (inactive)
same,GI50,RXF 393,20.1 µM (inactive)
same,GI50,Malme-3M,47.8 µM (inactive)
same,GI50,LOX IMVI,19.3 µM (inactive)
same,GI50,HCT-116,14.6 µM (inactive)
same,GI50,SW-620,40.3 µM (inactive)
same,GI50,M14,17 µM (inactive)
same,GI50,ACHN,15.5 µM (inactive)
same,GI50,SNB-75,30.8 µM (inactive)
same,GI50,BT-549,32.7 µM (inactive)
same,GI50,IGROV-1,28.8 µM (inactive)
same,GI50,SK-MEL-2,40.5 µM (inactive)
same,GI50,T47D,16.2 µM (inactive)
same,GI50,UO-31,29.9 µM (inactive)
same,GI50,OVCAR-8,25.6 µM (inactive)
same,GI50,OVCAR-3,31.9 µM (inactive)
same,GI50,Hs-578T,60.4 µM (inactive)
same,GI50,OVCAR-5,26.3 µM (inactive)
same,GI50,K562,22.6 µM (inactive)
same,GI50,HL-60,23.2 µM (inactive)
same,GI50,NCI-H522,26.1 µM (inactive)
same,GI50,HCT-15,35.6 µM
same,GI50,SF-539,33.9 µM (inactive)
same,GI50,SN12C,25.1 µM (inactive)
same,GI50,PC-3,36.7 µM (inactive)
same,GI50,MDA-MB-435,30.8 µM (inactive)
same,GI50,SF-268,34.6 µM (inactive)
same,GI50,SR,21.1 µM (inactive)
same,GI50,RPMI-8226,21.6 µM (inactive)
same,GI50,KM12,31.8 µM (inactive)
same,GI50,OVCAR-4,41.8 µM (inactive)
same,GI50,A549,4.62 µM (inactive)
same,GI50,NCI-H23,45.9 µM (inactive)
same,GI50,COLO 205,34.7 µM (inactive)
Cc1ccc(/N=N/c2cc(=O)[nH]c(=O)[nH]2)cc1C,GI50,MOLT-4,3.94 µM (inactive)
same,GI50,HT-29,1.97 µM (inactive)
same,GI50,HOP-62,17.7 µM (inactive)
same,GI50,NCI/ADR-RES,34 µM (inactive)
same,GI50,SK-MEL-28,15.6 µM (inactive)
same,GI50,NCI-H226,19.1 µM (inactive)
same,GI50,MCF7,12.3 µM (inactive)
same,GI50,DU-145,14.7 µM (inactive)
same,GI50,SNB-19,17.2 µM (inactive)
same,GI50,EKVX,17.9 µM (inactive)
same,GI50,HCC 2998,5.01 µM (inactive)
same,GI50,SK-MEL-5,15.8 µM (inactive)
same,GI50,NCI-H460,17.2 µM (inactive)
same,GI50,CCRF-CEM,2.2 µM (inactive)
same,GI50,786-0,2.82 µM (inactive)
same,GI50,HOP-92,16.4 µM (inactive)
same,GI50,UACC-257,13.7 µM (inactive)
same,GI50,SF-295,15.3 µM (inactive)
same,GI50,MDA-N,12.2 µM (inactive)
same,GI50,RXF 393,5.04 µM (inactive)
same,GI50,Malme-3M,14.4 µM (inactive)
same,GI50,LOX IMVI,1.71 µM (inactive)
same,GI50,HCT-116,5.58 µM (inactive)
same,GI50,SW-620,4.03 µM (inactive)
same,GI50,M14,14.2 µM (inactive)
same,GI50,ACHN,11 µM (inactive)
same,GI50,SNB-75,3.9 µM (inactive)
same,GI50,BT-549,13.7 µM (inactive)
same,GI50,IGROV-1,13.9 µM (inactive)
same,GI50,U-251,15.2 µM (inactive)
same,GI50,UO-31,17.9 µM (inactive)
same,GI50,OVCAR-8,14.6 µM (inactive)
same,GI50,OVCAR-3,1.94 µM (inactive)
same,GI50,Hs-578T,> 10 µM (inactive)
same,GI50,OVCAR-5,15.4 µM (inactive)
same,GI50,K562,2.79 µM (inactive)
same,GI50,HL-60,3.01 µM (inactive)
same,GI50,HCT-15,2.85 µM
same,GI50,SF-539,11.2 µM (inactive)
same,GI50,SN12C,4.74 µM (inactive)
same,GI50,PC-3,2.71 µM (inactive)
same,GI50,A498,18.4 µM (inactive)
same,GI50,TK-10,19.4 µM (inactive)
same,GI50,MDA-MB-435,11.2 µM (inactive)
same,GI50,SF-268,19.8 µM (inactive)
same,GI50,SR,3.6 µM (inactive)
same,GI50,RPMI-8226,3.01 µM (inactive)
same,GI50,KM12,12.1 µM (inactive)
same,GI50,MDA-MB-231,11.9 µM (inactive)
same,GI50,OVCAR-4,13.9 µM (inactive)
same,GI50,A549,18.5 µM (inactive)
same,GI50,COLO 205,7.76 µM (inactive)
